These are literature values, as cited in patent US6476071B1, “Correcting polymorphic metabolic dysfunction with (−)-hydroxycitric acid” (priority 2001, dated 2002).

Data set [1] has as its system animals. The settings on record: 70% glucose diet, as long as 80 days.
The subject of data set [2] is rats. The note with it: after a three hour meal.

As to `O=C([O-])CC(O)(C(=O)[O-])C(O)C(=O)[O-].[Na+].[Na+].[Na+]` (stereo not drawn) [trisodium salt of (−)-hydroxycitric acid], in data set [1], the “body weight after disappearance of appetite control” value is recorded as “maintained a reduced weight”. Further, the “contents of the stomach, % of control” value in data set [2] is on record as 223 % of control. Besides, in data set [2] (controls 884±145), the “contents of the stomach” value is 1973±154 dpm×10^3.
